Results on five compounds are retold here after patent US20050256168A1, “Compositions for oral administration for the treatment of interferon-responsive disorders” (priority 2004, published 2005).

In data set [1] the test system is HBV. Briefly: Secretion of enveloped HBV DNA into culture medium of Hep G2 2.2.15 cells. The format is cell-based, hepatitis B virus. Conditions: for secretion of enveloped HBV (HBV rc DNA in culture medium): Hep G2 2.2.15, 3 days, alpha galactosyl ceramide 0.1-100 nM, N-9-oxadecyl-6-methyl-DGJ 0.8-25 μM, interferon alpha 10^3 iU/mL; for IC50: Hep G2 2.2.15 cells, 3 days, read-out: IC50 (anti-viral, HBV).

Data set [2] concerns 2′,5′ OAS gene. Briefly: Induction of 2′,5′ OAS genes in Hep G2 cells by R/T PCR and Southern blot-R/T PCR. Conditions: 16 hours; for induction of medium (p69) and small (p40) 2′,5′ OAS genes: R/T PCR. Here is the method: Hep G2 cells were treated with the indicated doses of A) alpha galactosyl ceramide or with B) N-9-oxadecyl-6-methyl-DGJ (b) for 16 hours and the induction of the medium (p69) and small (p40) isoforms of the […] OAS gene determined by R/T PCR. For each set, actin levels were also monitored as a control for loading. […] C) Southern blot- R/T PCR of RNA from Hep G2 cells treated with the indicated concentration of N-9-oxadecyl-6-methyl-DGJ or with 10^3 iU/mL interferon alpha (2a/2b) for 16 hours. Briefly, limited PCR was performed as described for 5, 10, 15 cycles and the PCR products transferred to nylon membrane before hybridization with a 1377 bp cDNA probe from nucleotides 1 to 1377 from the published OAS-40/46 gene (accession #X02874). Actin controls were performed in the same manner.
The ability of alpha galactosyl ceramide and N-9-oxadecyl-6-methyl-DGJ to directly induce the innate host defense pathway in tissue culture was determined by analysis of the induction of the 2′-5′ oligoadenylate synthetase genes (2′,5′ OAS) using an RT PCR based methodology.
Briefly, Hep G2 cells were incubated with either alpha galactose ceramide or the synthetic glycolipids shown in FIG. 1 for the desired length of time and the total RNA harvested using Tri-reagent as per manufactures directions (Gibco-BRL, Rockville, Md., USA). RNA samples were further purified using the Ambion DNA™ free kit, (Ambion, Inc., Austin, Tex., USA) before reverse transcriptase (RT) PCR with the PCR conditions and primers exactly as reported in the literature. PCR was performed in the absence of (RT) for 50 cycles to ensure no DNA contamination. Dilution experiments were used to ensure that PCR was within the linear range of the assay. Southern blot-R/T PCR of RNA from Hep G2 cells treated with the indicated concentration of N-9-oxadecyl-6-methyl-DGJ or with interferon alpha (2a/2b) for 16 hours was also performed to allow for quantification of induction. Briefly, limited PCR was performed as described above for 5, 10, 15 cycles and the PCR products transferred to nylon membrane. Hybridization was carried out using a 1377 bp cDNA probe from nucleotides I to 1377 from the published OAS40/46 gene (accession #X02874). OAS-40/46 specific bands were identified and quantified by phosphor image analysis [Bio-Rad, Hercules, Calif.].

Data set [3] deals with HCV replicon. Briefly: HCV subgenomic replicon RNA level in 9-13 cells (Northern blot). Conditions: 48 hours. The format is cell-based, hepatitis C virus. Background: Replicon systems follow genome replication, usually without infectious particles.
Experimental: A) Total RNA was isolated, resolved through agarose gels and hybridized to a radioactive probe specific for HCV NS5B. After washing, the blot was and re-probed with radioactive beta-actin specific sequences to control for loading of lanes.
Beta-actin protein and RNA were used as controls in these experiments.
9-13 cells were seeded in T25 flask at 3×10^6 cells. […] Northern blot analysis was done to analyze HCV replicon RNA level.
Briefly, 2 μg total RNA was electrophoresed through a 1.0% agarose gel containing 2.2 M formaldehyde, transferred to a nylon membrane and immobilized by Lw cross-linking (Stratagene). Hybridization was carried out using an alpha-[^32P]CTP-labeled probe with random primers on a 2 kb NS5B DNA fragment in a quick hybridization solution (Amersham Bioscience, Piscataway, N.J.) for 16 h at 65° C. The membranes were washed once in 2×SSC/0.1% SDS for 30 min at room temperature and twice in 0.1×SSC/0.1% SDS for 30 min at 65° C.
The subject of data set [4] is HBV. To be noted: from Antimicrob Agents Chemother. 2002; 46(12): 4004-4008; cited from earlier work.
The test system of data set [5] is bovine viral diarrhea virus (BVDV). Briefly: BVDV antiviral activity in tissue cultures of infected MDBK cells. The format is cell-based. From the text: The IC50 for 6-O-nonyl-deoxynojirimycin, for example, bovine viral diarrhea virus (BVDV), in tissue cultures of BVDV infected MDBK cells, a surrogate of hepatitis C virus is 3 micro-molar.
The subject of data set [6] is glucosidase. Briefly: Glucosidase inhibitory activity. The format is biochemical.
Data set [7] concerns HBsAg, core antigen, HBV polymerase. Briefly: Effect on HBsAg and core antigen production or secretion and HBV polymerase activity. The format is cell-based, hepatitis B virus. To be noted: at concentrations that were highly anti-viral. From the text:
Both alpha galactosyl ceramide and the “alkovirs”, described herein, have anti-hepatitis B virus activity (FIG. 2).
This indicates both that the compounds were both well tolerated at these concentrations and that the anti-viral activity cannot be explained by a direct effect upon the synthesis of viral products but rather through the activation of a cellular defense mechanism.

Data set [8] deals with Hep G2 2.2.15 cells. Briefly: MTT toxicity test. The format is cell-based. The procedure:
A) Alpha galactosyl ceramide inhibits HBV in vitro. […] Briefly, Hep G2 2.2.15 cells, which secrete hepatitis B virus, were either left untreated or treated with 10^3 iU/mL of interferon alpha (2a/2b) or 0.1 nM to 100 nM of alpha galactosyl ceramide for three days and the amount of HBV specific DNA detected in the culture medium using a method which discriminates between enveloped and non enveloped viral particles. The HBV rc DNA, which decreases with both interferon and alpha galactose ceramide treatment is indicated. […] Hep G2 2.2.15 cells were left untreated or treated with varying doses of the synthetic glycolipid N-9-oxadecyl-6-methyl-DGJ (0.8 μM to 25 μM) for 3 days and the level of HBV secreted into the culture medium detected as before. […] The HBV rc DNA, which decreases with N-9-oxadecyl-6-methyl-DGJ, interferon, and alpha galactosyl ceramide treatment is indicated. C-D) Cells treated with alpha-galactosyl ceramide or the synthetic glycolipid N-9-oxadecyl-6-methyl-DGJ were tested for viability using the standard MTT toxicity test. For panel C: X-axis: From left to right: Untreated cells; Alpha galactosyl ceramide at 10 μM, 5 μM, 2.5 μM, 1 μM, 0.5 μM, 0.1 μM. Y-axis, percent viability as compared to untreated group. For Panel D: X-axis: From left to right: Untreated cells; N-9-oxadecyl-6-methyl-DGJ at 2000 μM, 800 μM. 400 μM, 200 μM, 100 μM, 10 μm. Y-axis, percent viability as compared to untreated group.
Toxicity was determined by mitochondrial toxicity testing (MTT) of cells that had been exposed to compounds in a manner similar to the anti-viral assays except cells were treated in 24 well trays. Briefly, Hep G2 2.2.15 cells were treated with drug as indicated in the figure legends for 3 days, the media removed and replaced with 100 μl of a 10 mg/ml solution of tetrazolium bromide [[3-[4,5-dimethylthiazol-2-yl]-2,5-diphenyltetrazolium bromide, Sigma Chemicals] for one hour at 37° C. Addition of 100-200 μl of dimethylsulfoxide (DMSO) led to color development. Supernatants were removed and placed in a 96 well tray for analysis. OD values were read at 590 nm.
A general note: Formazan colour is commonly taken as a measure of viable cells.

Entries after “also recorded” stand apart in the source; their conditions may differ. Like-named read-outs stand apart in the source and are kept apart here.

Consider interferon alpha, for which, in data set [1], the “secretion of enveloped HBV (HBV rc DNA in culture medium)” value (shortened to “secretion of enveloped HBV”) is “inhibits secretion effectively”. In addition, the “induction of medium (p69) and small (p40) 2′,5′ OAS genes” value (from here on “induction of medium (p69) and small”) in data set [2] is “potent inducer of both the medium (p69) and small (p40) 2′,5′ OAS genes”. In addition, the “replication of HCV RNA in 9-13 cells” value in data set [3] is recorded as “sensitive to interferon alpha”.
For the compound `CCOCCCCCCN1CC(O)C(O)C(O)C1C(C)O` (centres unmarked) [N-7-oxanonyl-6-methyl-DGJ], the “anti-viral activity against hepatitis B virus” value in data set [4] is reported as “no anti-viral activity against hepatitis B virus; also recorded: limited anti viral activity against HBV”. Further, the “induction of medium (p69) and small” value in data set [2] is reported as “did not detectably induce 2′,5′ OAS gene expression”.
Consider `CCCCCCCCCOCC1NCC(O)C(O)C1O` (centres unmarked) [6-O-nonyl-deoxynojirimycin], for which the IC50 in data set [5] (BVDV infected MDBK cells, surrogate of hepatitis C virus, read-out: IC50 against BVDV) was found to be 3 µM. Moreover, the antiviral activity result in data set [5] (virus not named at b41, BVDV assumed) is listed as “retains antiviral activity”. Moreover, the glucosidase inhibitory activity result in data set [6] is listed as “no glucosidase inhibitory activity”.
As for `COCCCCCCCCN1CC(O)C(O)C(O)C1C(C)O` (centres unmarked) [N-9-oxadecyl-6-methyl-DGJ], in data set [7], the “effect upon HBsAg production or secretion, core antigen production or secretion or HBV polymerase activity” value is recorded as “Neither Alpha Galactosyl Ceramide or N-9-oxadecyl-6-methyl-DGJ had any Detectable Effect”. In addition, in data set [8], the CC50 is greater than 2000 µM and the toxicity entry is on record as “little or no toxicity”. Further, in data set [1], the IC50 is roughly 1 µM and the “secretion of enveloped HBV” value is “exerted anti-viral activity at varying doses”. Further, in data set [2] (70 μM, Southern blot-R/T PCR), the “fold induction of the 2′,5′ OAS gene” value stood at 20 fold. In addition, the “induction of medium (p69) and small” value in data set [2] is “induced only the small (p40) 2′,5′ OAS gene expression”. The “fold increase in 2′,5′ OAS gene expression” value in data set [2] (lower concentrations (below 70 μM), dose dependent) is listed as 2-15 fold. Further, the IC50 in data set [3] (9-13 cells, three separate experiments, read-out: IC50 for reduction of HCV RNA) was found to be 1.5 µM.
In the case of `CCCCCCCCCCCCCCCCCCCCCCCCCC(=O)N[C@@H](CO[C@H]1O[C@H](CO)[C@H](O)[C@H](O)[C@H]1O)[C@H](O)[C@H](O)CCCCCCCCCCCCCC` [alpha galactosyl ceramide, reference compound], the “effect upon HBsAg production or secretion, core antigen production or secretion or HBV polymerase activity” value in data set [7] is listed as “Neither Alpha Galactosyl Ceramide or N-9-oxadecyl-6-methyl-DGJ had any Detectable Effect”. In data set [8] (FIG. 2-3), the toxicity entry was “little or no toxicity”. In data set [8] (Hep G2 2.2.15 cells, 3 days, MTT, read-out: CC50), the CC50 was 8 µM. In data set [1], the IC50 is roughly 0.0004 µM and the “secretion of enveloped HBV” value was “inhibited the secretion of enveloped HBV”. In addition, the “induction of medium (p69) and small” value in data set [2] is “induced only the small (p40) 2′,5′ OAS gene expression”.

For orientation: IC50 means the point on the concentration scale where inhibition reaches its midpoint. The CC50 is the concentration at which the toxic effect on the cells reaches its halfway point.
